From PMC8019892, “Para-Aminobenzohydrazide Derivatives as Fatty Acid Amide Hydrolase Inhibitors: Design, Synthesis and Biological Evaluation” (Iranian Journal of Pharmaceutical Research : IJPR, 2020)
Where two headings read alike, the source gives them in different places. Blank lines part the entries; values can stand above or below the compound they belong to.

Columns and labels:
[1] = target: T1, fatty acid amide hydrolase (FAAH) (Homo sapiens, UniProt O00519); test: Cayman plate-based fluorometric FAAH assay kit; assay type: biochemical
T1 construct: purchased Cayman 10005196
T1 sequence (O00519 1-579): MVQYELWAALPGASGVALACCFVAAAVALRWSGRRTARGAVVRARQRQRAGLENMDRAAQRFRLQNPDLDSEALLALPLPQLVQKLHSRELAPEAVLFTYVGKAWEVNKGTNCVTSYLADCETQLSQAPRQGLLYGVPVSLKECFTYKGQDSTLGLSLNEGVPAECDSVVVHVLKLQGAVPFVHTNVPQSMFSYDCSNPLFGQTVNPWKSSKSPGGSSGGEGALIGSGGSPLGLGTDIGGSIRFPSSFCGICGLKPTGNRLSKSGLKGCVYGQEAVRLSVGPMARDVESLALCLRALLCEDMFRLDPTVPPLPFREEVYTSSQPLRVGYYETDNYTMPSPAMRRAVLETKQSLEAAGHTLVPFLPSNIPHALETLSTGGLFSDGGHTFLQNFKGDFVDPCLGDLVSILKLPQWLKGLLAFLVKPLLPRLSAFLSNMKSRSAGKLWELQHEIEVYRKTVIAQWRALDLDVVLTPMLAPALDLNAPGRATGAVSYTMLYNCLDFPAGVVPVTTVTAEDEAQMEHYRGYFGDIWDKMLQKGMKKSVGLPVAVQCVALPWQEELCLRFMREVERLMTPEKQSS
Method: The inhibitory activity of the final products was evaluated against fatty acid amide hydrolase with Cayman plate-based fluorometric FAAH assay kit (item number 10005196) using an excitation wavelength of 340 nm and an emission wavelength of 450 nm. The enzyme was incubated with inhibitors for 5 min in […] Tris/HCl buffer (pH 9.0) at 37 °C. AMC-arachidonoyl amide and JZL-195 were used as substrate and positive control respectively. All test samples were dissolved in DMSO.
The IC50 of the compounds with inhibitory activity above 70% and JZL-195, reference compound, were investigated at concentrations of 0.1, 5, 10, 20, 50 and 100 nM. The results are summarized in Table 1 Evaluation of the 5a, 5b and 7 derivatives have well illustrated the effect of phenyl group on inhibitory activity, which is probably directly related to lipophilicity and π-π interactions in lipophilic envelope.

[2] = test system: FAAH; design: method as in PMID 28535469, PMID 21764305, PMID 10805767; conditions: 8 and 9, cited from earlier work
[3] = 100 nM compound, 5 min incubation, Tris/HCl pH 9.0, 37 °C, substrate AMC-arachidonoyl amide, read-out: %inhibition at 100nM
[4] = concentrations 0.1, 5, 10, 20, 50 and 100 nM, fluorometric FAAH assay, read-out: IC50

SMILES: Cc1cccnc1NC(=O)CNC(=O)C(C)c1ccc(Nc2ccnc(C(F)(F)F)c2)cc1 (centres unmarked) [TPA-17]
IC50 ([2]; known FAAH inhibitor, Figure 1): 2400 nM
FAAH inhibitory activity ([2]; previously reported, in words): mild FAAH inhibitory activity

SMILES: O=C(NNC(=O)c1ccc([N+](=O)[O-])cc1)c1ccc(NC(=O)c2ccc([N+](=O)[O-])cc2)cc1 [Compound 10f, 4-nitro-N-(4-(2-(4-nitrobenzoyl) hydrazine-1-carbonyl)phenyl) benzamide]
melting point: 287 to 289 °C
inhibition at 0.1 µM [1, 3]: 50.5%

SMILES: O=C(O)CCC(=O)NNC(=O)c1ccc(NC(=O)CCC(=O)O)cc1 [Compound 11, 4-(2-(4-(3-carboxypropanamido)benzoyl) hydrazineyl)-4-oxobutanoic acid]
melting point: 185 to 187 °C
inhibition at 0.1 µM [1, 3]: 51.2%

SMILES: O=C(NN1C(=O)CCC1=O)c1ccc(N2C(=O)CCC2=O)cc1 [Compound 9, N, 4-bis (2,5-dioxopyrrolidin-1-yl) benzamide]
melting point: 273 to 275 °C
inhibition at 0.1 µM [1, 3]: 45.1%

SMILES: O=C(Oc1ccc([N+](=O)[O-])cc1)N1CCN(Cc2cccc(Oc3ccccc3)c2)CC1 [JZL-195, reference compound]
IC50 [1]: 1.31 nM
inhibition at 0.1 µM ([1]; pH 9, read-out: %inhibition at 100nM): 81%

SMILES: O=C(NN1C(=O)c2ccccc2C1=O)c1ccc(N2C(=O)c3ccccc3C2=O)cc1 [Compound 8, N, 4-bis (1,3-dioxoisoindolin-2-yl) benzamide]
melting point: 316 to 318 °C
inhibition at 0.1 µM [1, 3]: 31.3%

SMILES: NC(=O)NNC(=O)c1ccc(NC(N)=O)cc1 [Compound 7, 2-(4-ureidobenzoyl) hydrazine-1-carboxamide]
melting point: 226 to 228 °C (dec.)
inhibition at 0.1 µM [1, 3]: 27.3%

SMILES: O=C(NNC(=O)c1ccccc1C(=O)O)c1ccc(NC(=O)c2ccccc2C(=O)O)cc1 [Compound 12, 2-(2-(4-(2-carboxybenzamido)benzoyl) hydrazine-1-carbonyl) benzoic acid]
melting point: 186 °C
inhibition at 0.1 µM [1, 3]: 80%
IC50 [1, 4]: 1.62 nM

SMILES: O=C(CCCCCCc1ccccc1)c1nnc(-c2ccccn2)o1 [OL-135 analogue]
Ki ([2]; known FAAH inhibitor, Figure 1): 0.29 nM

SMILES: O=C(NNS(=O)(=O)c1ccccc1)c1ccc(NS(=O)(=O)c2ccccc2)cc1 [Compound 13, N-(4-(2-(phenylsulfonyl) hydrazine-1-carbonyl)phenyl) benzenesulfonamide]
melting point: 239 to 241 °C
inhibition at 0.1 µM [1, 3]: 31.4%

Now from value to compound:

melting point: 265 to 267 °C
inhibition at 0.1 µM [1, 3]: 81.1%
IC50 [1, 4]: 20.2 nM
SMILES: O=C(NNC(=O)c1ccc(NC(=O)c2ccccc2)cc1)c1ccccc1 [Compound 10a, N-(4-(2-benzoylhydrazine-1-carbonyl)phenyl) benzamide]

melting point: 322 to 325 °C
inhibition at 0.1 µM [1, 3]: 38.9%
SMILES: O=C(NNC(=O)c1ccc(NC(=O)c2ccc(F)cc2)cc1)c1ccc(F)cc1 [Compound 10e, 4-fluoro-N-(4-(2-(4-fluorobenzoyl) hydrazine-1-carbonyl)phenyl) benzamide]

melting point: 283 to 285 °C
inhibition at 0.1 µM [1, 3]: 58.5%
SMILES: NC(=O)NNC(=O)c1ccc(NC(=O)c2ccccc2)cc1 [Compound 5a, 2-(4-benzamidobenzoyl) hydrazine-1-carboxamide]

melting point: 315 to 318 °C
inhibition at 0.1 µM [1, 3]: 77.3%
IC50 [1, 4]: 12.3 nM
SMILES: O=C(NNC(=O)c1ccc(NC(=O)c2ccc(Cl)cc2)cc1)c1ccc(Cl)cc1 [Compound 10c, 4-chloro-N-(4-(2-(4-chlorobenzoyl) hydrazine-1-carbonyl)phenyl) benzamide]

melting point: 264 to 266 °C
inhibition at 0.1 µM [1, 3]: 77.3%
IC50 [1, 4]: 5.1 nM
SMILES: COc1ccc(C(=O)NNC(=O)c2ccc(NC(=O)c3ccc(OC)cc3)cc2)cc1 [Compound 10d, 4-methoxy-N-(4-(2-(4-methoxybenzoyl) hydrazine-1-carbonyl)phenyl) benzamide]

melting point: 273 to 275 °C
inhibition at 0.1 µM [1, 3]: 77.4%
IC50 [1, 4]: 13.3 nM
SMILES: O=C(NNC(=O)c1cccc(Cl)c1)c1ccc(NC(=O)c2cccc(Cl)c2)cc1 [Compound 10b, 3-chloro-N-(4-(2-(3-chlorobenzoyl) hydrazine-1-carbonyl)phenyl) benzamide]

melting point: 325 to 327 °C
inhibition at 0.1 µM [1, 3]: 63.4%
SMILES: NC(=O)NNC(=O)c1ccc(NC(=O)c2ccc(Cl)cc2)cc1 [Compound 5b, 2-(4-(4-chlorobenzamido)benzoyl) hydrazine-1-carboxamide]
